O=C(O)c1ccc(Cl)cc1C(=O)O
in water
Details | solubility (mole fraction)
283.15 K | 0.0802
288.15 K | 0.0913
293.15 K | 0.109
298.15 K | 0.125
303.15 K | 0.145
308.15 K | 0.169
313.15 K | 0.2
318.15 K | 0.226
323.15 K | 0.262
328.15 K | 0.299
333.15 K | 0.349

O=C(O)c1cccc(Cl)c1C(=O)O
in water
Details | solubility (mole fraction)
283.15 K | 0.00201
288.15 K | 0.00221
293.15 K | 0.00248
298.15 K | 0.00281
303.15 K | 0.00315
308.15 K | 0.00346
313.15 K | 0.00383
318.15 K | 0.0043
323.15 K | 0.00473
328.15 K | 0.00517
333.15 K | 0.0056

O=C1OC(=O)c2c(Cl)cccc21
solubility (mole fraction)
Details | 283.15 K | 288.15 K | 293.15 K | 298.15 K | 303.15 K | 308.15 K | 313.15 K | 318.15 K | 323.15 K
in 1,4-dioxane | 0.185 | 0.226 | 0.268 | 0.296 | 0.328 | 0.367 | 0.396 | 0.42 | 0.439
in acetone | 0.167 | 0.182 | 0.202 | 0.218 | 0.234 | 0.261 | 0.291 | 0.32 | 0.357
in ethyl acetate | 0.107 | 0.112 | 0.121 | 0.133 | 0.154 | 0.169 | 0.191 | 0.225 | 0.265

O=C1OC(=O)c2cc(Cl)ccc21
solubility (mole fraction)
Details | 283.15 K | 288.15 K | 293.15 K | 298.15 K | 303.15 K | 308.15 K | 313.15 K | 318.15 K | 323.15 K
in 1,4-dioxane | 0.0825 | 0.0992 | 0.124 | 0.142 | 0.166 | 0.205 | 0.25 | 0.298 | 0.359
in acetone | 0.201 | 0.222 | 0.246 | 0.287 | 0.316 | 0.369 | 0.427 | 0.473 | 0.522
in ethyl acetate | 0.178 | 0.184 | 0.206 | 0.228 | 0.261 | 0.293 | 0.326 | 0.377 | 0.437
